Assay results from PMC12078333, “Pharmacokinetic evaluation and bioavailability of KPT-335 (Verdinexor) in cats” (Frontiers in Veterinary Science, 2025).
Where “and” joins values, the source holds several entries; their conditions need not be identical. Equal entries are not always repeated. Where two headings read alike, the source gives them in different places.

Test: Pharmacokinetics study of KPT-335 in cats (i.v. injection, p.o. capsules and tablets; UPLC-MS/MS, non-compartmental analysis)
Format: in vivo
Conditions: cats; for bioavailability / k el / Tmax / MRT last / AUC(0-inf) / AUC(0-t) / Cmax: both sexes, plasma, po; for k el: read-out: Lambda_z (converted); for Tmax: read-out: Tmax; for AUC(0-inf): read-out: AUCINF_obs; for AUC(0-t): read-out: AUClast; for Cmax: read-out: Cmax; for Plasma concentration: individual cats 1-6
Method: In this study, a parallel trial design was employed, 42 adult domestic cats (21 males and 21 females), aged 1 to 2 years and weighing 2.5 ± 0.25 kg. Cats were grouped by random number, with half male and female in each group, and all cats were determined to be systemically healthy during an initial screening visit 1 week prior to the experiment. They were acclimatized to the laboratory environment for 7 days before the study commenced. During this period, they were kept in solitary cages with free access to water. Cats in the fasting group were deprived of food for 12 h prior to and 2 h following drug administration, while those in the feeding group were fed twice a day. Food and water sources were consistent throughout the trail. During and at the end of the experiment, we systematically assessed the adverse reactions by recording parameters such as body weight, behavior, and coat gloss in all test cats both before and after the trial. These observations were conducted to evaluate whether any adverse reactions occurred. All procedures were reviewed and approved by the Institutional Animal Care and Use Committee of China Agricultural University (11305-23-E-002).
The UPLC-MS/MS system utilized a UPLC 1290 (Agilent) paired with a Phenomenex Kinetex C18 column (50 mm × 2.1 mm, 2.6 μm) for separation at a flow rate of 0.3 mL/min. The chromatographic mobile phase comprised water (A) and acetonitrile (B), both containing 0.1% formic acid. The gradient elution program was as follows: from 0.5 to 2.5 min, 10 to 95% B; from 2.5 to 4.5 min, 95% B; from 4.5 to 4.6 min, 95 to 10% B; and from 4.6 to 6.0 min, 10% B. The injection volume was 2 μL.
For mass spectrometry, an Agilent 6,475-LC-TQ equipped with an electrospray ion source was used. Multiple Reaction Monitoring (MRM) was selected to quantify KPT-335 in the positive ion mode. The ion transitions monitored were m/z 443.1 → 334.0 and 443.1 → 110.1 for KPT-335, and m/z 444.1 → 334.0 for the internal standard (IS). The cone voltage and collision energy were optimized for KPT-335 and the IS individually, set at 160 V and 25 eV, respectively. The optimized parameters for the instrument included an ion source temperature of 350°C, solvent removal temperature of 320°C, capillary voltage of 3.0 kV, and a solvent gas flow rate of 300 L/h.
The method was developed based on prior research conducted in the laboratory ([16]) and validated in accordance with international guidelines ([17]). The calibration concentration range for KPT-335 spanned from 0.5 to 100 ng/mL, with a lower limit of quantification (LLOQ) set at 0.5 ng/mL. The squared correlation coefficient (R^2) values exceeded 0.999, indicating high linearity.
For sample preparation, 100 μL of plasma was mixed with 10 μL of internal standard (IS) and 900 μL of acetonitrile, followed by vortexing for 2 min. The mixture was then centrifuged at 13,400 × g at 4°C for 10 min. The supernatant was filtered through a 0.22 μm organic membrane, and the resulting sample was analyzed using UPLC-MS/MS.
Cats were divided into seven groups, with six cats in each group. In the intravenous (i.v.) group (Group 1), cats received an injection of KPT-335 at a dosage of 1 mg/kg body weight (BW), administered via a bolus through a venous infusion needle. For the oral (p.o.) administration, cats were given capsules in a fasting state at doses of 0.2 mg/kg BW (Group 2), 1 mg/kg BW (Group 3), and 2 mg/kg BW (Group 4). Additionally, tablets were administered at 1 mg/kg BW (fasting, Group 5), 1 mg/kg BW (Group 6), and 2 mg/kg BW (Group 7) in a feeding state, followed by 3 mL of water delivered with a syringe.
For the p.o. administration, blood samples of 1.5 mL were collected via the brachial cephalic vein prior to administration and at 0.167, 0.333, 0.5, 0.75, 1, 1.5, 2, 4, 6, 8, 12, 24, 32, and 48 h post-administration. […]

[1] = 0.2 mg/kg, p.o., Capsule, Fasting, 0.2 mg/kg BW
[2] = 1 mg/kg, p.o., Capsule, Fasting, 1 mg/kg BW
[3] = 1 mg/kg, p.o., Tablet, Fasting, 1 mg/kg BW
[4] = 1 mg/kg, p.o., Tablet, Feeding, 1 mg/kg BW
[5] = 2 mg/kg, p.o., Capsule, Fasting, 2 mg/kg BW
[6] = 2 mg/kg, p.o., Tablet, Feeding, 2 mg/kg BW
[7] = capsule group, 0.2–2 mg/kg BW, reference 95% CI 0.90–1.10

In the case of O=C(/C=C\n1cnc(-c2cc(C(F)(F)F)cc(C(F)(F)F)c2)n1)NNc1ccccn1 [KPT-335], the bioavailability (0.2 mg/kg, p.o., Capsule, Fasting, 0.2 mg/kg BW, read-out: F (absolute bioavailability)) is reported as 43.7%, the k el [1] is reported as 3.33e-05 s⁻¹ and the Tmax [1] is reported as 2.46 ± 2.75 h. For the same compound, the MRT last (1 mg/kg, Capsule, Fasting, 1 mg/kg BW) was 5.94 ± 1.05 h, the MRT last (1 mg/kg, Tablet, Fasting, 1 mg/kg BW) was 8.07 ± 1.73 h and the MRT last (1 mg/kg, Tablet, Feeding, 1 mg/kg BW) was 5.8 ± 1.61 h. It also gave a bioavailability (1 mg/kg, doses of 1 mg/kg BW, read-out: bioavailability of commercial tablets) of roughly 70%, an AUC(0-inf) [2] of 1420 ± 490 ng·h/mL and an AUC(0-t) [2] of 1420 ± 489 ng·h/mL. It also gave a Cmax [2] of 260 ± 75 ng/mL, a bioavailability (1 mg/kg, p.o., Capsule, Fasting, 1 mg/kg BW, read-out: F (absolute bioavailability)) of 44.7% and a k el [2] of 3.61e-05 s⁻¹. The Tmax [2] was 1.25 ± 0.39 h, the AUC(0-inf) [3] was 2430 ± 805 ng·h/mL and the AUC(0-t) [3] was 2410 ± 793 ng·h/mL. It also gave a Cmax [3] of 264 ± 129 ng/mL, a bioavailability (1 mg/kg, p.o., Tablet, Fasting, 1 mg/kg BW, read-out: F (absolute bioavailability)) of 75.9% and a k el [3] of 3.61e-05 s⁻¹. It also gave a Tmax [3] of 1.79 ± 1.17 h, an AUC(0-inf) [4] of 2270 ± 1260 ng·h/mL and an AUC(0-t) [4] of 2250 ± 1260 ng·h/mL. It also gave a Cmax [4] of 364 ± 145 ng/mL, a bioavailability (1 mg/kg, p.o., Tablet, Feeding, 1 mg/kg BW, read-out: F (absolute bioavailability)) of 71% and a k el [4] of 5e-05 s⁻¹. For the same compound, the Tmax [4] was 1.33 ± 0.41 h, the MRT last (2 mg/kg, Capsule, Fasting, 2 mg/kg BW) was 7.57 ± 1.94 h and the MRT last (2 mg/kg, Tablet, Feeding, 2 mg/kg BW) was 5.07 ± 0.69 h. It also gave an AUC(0-inf) [5] of 1850 ± 819 ng·h/mL, an AUC(0-t) [5] of 1840 ± 819 ng·h/mL and a Cmax [5] of 280 ± 175 ng/mL. The bioavailability (2 mg/kg, p.o., Capsule, Fasting, 2 mg/kg BW, read-out: F (absolute bioavailability)) was 28.9%, the k el [5] was 2.78e-05 s⁻¹ and the Tmax [5] was 1.58 ± 0.38 h. The AUC(0-inf) [6] was 3010 ± 715 ng·h/mL, the AUC(0-t) [6] was 3000 ± 711 ng·h/mL and the Cmax [6] was 559 ± 104 ng/mL. For the same compound, the bioavailability (2 mg/kg, p.o., Tablet, Feeding, 2 mg/kg BW, read-out: F (absolute bioavailability)) was 47.3%, the k el [6] was 5.83e-05 s⁻¹ and the Tmax [6] was 1.58 ± 0.2 h. The bioavailability (doses of 0.2–1 mg/kg BW, read-out: absolute bioavailability of capsules) was roughly 40%, the “dose linearity of pharmacokinetics” value (0.2–2 mg/kg BW dosage range) was “not to exhibit linear pharmacokinetics” and the “differences in pharmacokinetic parameters (Cmax and AUClast) between male and female cats” value (all groups) was “no statistically significant differences”. The “95% confidence interval of β, dose vs AUClast” value [7] was 0.63–1.11, the “95% confidence interval of β, dose vs Cmax” value [7] was 0.79–1.30 and the Plasma concentration (capsule p.o. 0.2 mg/kg BW, 1.5 h, 0.2 mg/kg, in ng/mL) was 15.20 and 20.46 and 38.22 and 14.31 and 22.72 and 26.72. The Plasma concentration (capsule p.o. 0.2 mg/kg BW, 2 h, 0.2 mg/kg, in ng/mL) was 13.60 and 18.16 and 33.66 and 26.22 and 20.79 and 22.21, the Plasma concentration (capsule p.o. 0.2 mg/kg BW, 4 h, 0.2 mg/kg) was 8.71 ng/mL and the Plasma concentration (capsule p.o. 0.2 mg/kg BW, 4 h, 0.2 mg/kg, in ng/mL) was 14.86 and 24.97 and 21.41 and 17.43 and 19.90. For the same compound, the Plasma concentration (capsule p.o. 0.2 mg/kg BW, 6 h, 0.2 mg/kg) was 6.19 ng/mL, the Plasma concentration (capsule p.o. 0.2 mg/kg BW, 6 h, 0.2 mg/kg, in ng/mL) was 20.30 and 16.23 and 18.02 and 15.34 and the Plasma concentration (capsule p.o. 0.2 mg/kg BW, 32 h, 0.2 mg/kg) was “BLOQ”. The Plasma concentration (capsule p.o. 0.2 mg/kg BW, 48 h) was “BLOQ”, the Plasma concentration (capsule p.o. 1 mg/kg BW, 48 h, 1 mg/kg) was “BLOQ” and the Plasma concentration (i.v. 1 mg/kg BW, 0.083 h, 1 mg/kg, in ng/mL) was 1162.77 and 332.48 and 914.52 and 894.65 and 827.83 and 934.74. The Plasma concentration (i.v. 1 mg/kg BW, 0.167 h, 1 mg/kg, in ng/mL) was 1202.33 and 331.12 and 812.32 and 891.11 and 808.43 and 825.26, the Plasma concentration (i.v. 1 mg/kg BW, 0.25 h, 1 mg/kg, in ng/mL) was 1058.99 and 320.82 and 769.91 and 863.19 and 750.36 and 838.90 and the Plasma concentration (i.v. 1 mg/kg BW, 0.33 h, 1 mg/kg, in ng/mL) was 996.69 and 292.96 and 774.12 and 852.52 and 723.28 and 760.14. For the same compound, the Plasma concentration (i.v. 1 mg/kg BW, 0.5 h, 1 mg/kg, in ng/mL) was 935.15 and 297.11 and 736.77 and 700.75 and 649.99 and 680.18 and the Plasma concentration (i.v. 1 mg/kg BW, 0.75 h, 1 mg/kg, in ng/mL) was 709.09 and 236.62 and 633.10 and 524.38 and 509.94 and 541.50.
